{"source": "patent US20110028445A1", "about": "“Urea derivatives of benzomorphanes and related scaffolds, medicaments containing such compounds and their use” (BOEHRINGER INGELHEIM INTERNATIONAL GMBH, priority 2008, published 2011)"}
{"target": "T1, 11β-HSD1 (Homo sapiens, UniProt P28845)", "T1 construct": "detecting cortisol generated from cortisterone by human liver microsomes; from tissue; host or cells: human liver microsomes", "T1 sequence (P28845 whole entry)": "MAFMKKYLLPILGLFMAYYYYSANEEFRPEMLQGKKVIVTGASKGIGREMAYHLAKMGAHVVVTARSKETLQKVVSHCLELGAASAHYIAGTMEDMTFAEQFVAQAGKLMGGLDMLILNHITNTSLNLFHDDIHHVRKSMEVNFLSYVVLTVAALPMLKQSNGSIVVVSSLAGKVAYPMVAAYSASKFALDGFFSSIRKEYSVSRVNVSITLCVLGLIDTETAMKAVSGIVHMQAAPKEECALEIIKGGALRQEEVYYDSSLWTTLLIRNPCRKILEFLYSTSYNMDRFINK", "experiment": "In vitro inhibition of 11β-HSD1, HTRF detection of cortisol generated by human liver microsomes", "format": "biochemical", "details": "compound concentration 1 μM, 100% indicates no inhibition, zero or below zero indicates complete inhibition, cortisone 80 nM, 1 hour at 37° C., read-out: % CTL at 1 μM", "method": "Briefly, compounds were incubated for 1 hour at 37° C. in Tris buffer (20 mM tris, 5 mM EDTA, pH 6.0) containing NADPH (200 μM) and cortisone (80 nM). Cortisol generated in the reaction is then detected with a competitive immunoassay, involving two HTRF conjugates: cortisol linked to XL665 and anti-cortisol antibody labeled with Europium cryptate. The incubation period for detection reaction was typically 2 hours. The amount of cortisol is determined by reading the time-resolved fluorescence of the wells (Ex 320/75 nm; Em 615/8.5 nm and 665/7.5 nm). The ratio of the two emission signals is then calculated (Em665*10000/Em615). […] Each assay also contained a calibration curve with cortisol to transform the fluorescent data into cortisol concentrations. Percent inhibition of each compound was determined relative to the carbenoxolone signal and IC50 curves were generated.\nThe % CTL values of some example compounds at a concentration of 1 μM are provided in the following Table 2 wherein 100% indicates no inhibition and a value of zero or below zero indicates complete inhibition. The measurement of % CTL is described hereinbefore.", "units": {"remaining activity at 1 µM": "%"}}
{"smiles": "CC1(C)[C@H]2Cc3c(O)cccc3[C@]1(C)CCN2C(=O)N1C2CCCC1CC(O)C2", "note": "(stereo partly shown) [Example 40]", "remaining activity at 1 µM": -17}
{"smiles": "CC1(C)[C@H]2Cc3ccccc3[C@]1(C)CCN2C(=O)N1CCCC2(CCCNC2=O)C1", "note": "(stereo partly shown) [Example 60]", "remaining activity at 1 µM": -19}
{"smiles": "CC1(C)[C@H]2Cc3c(O)cccc3[C@]1(C)CCN2C(=O)N1CCC(C(N)=O)CC1", "note": "[Example 50]", "remaining activity at 1 µM": -20}
{"smiles": "CC1(C)[C@H]2Cc3c(O)cccc3[C@]1(C)CCN2C(=O)N1CCC(CO)C1", "note": "(stereo partly shown) [Example 22]", "remaining activity at 1 µM": -4}
{"smiles": "COc1cccc2c1C[C@H]1N(C(=O)N3CCCCC3)CC[C@]2(C)C1(C)C", "note": "[Example 31, [(2R,6S)-10-Methoxy-6,11,11-trimethyl-1,2,5,6-tetrahydro-4H-2,6-methano-benzo[d]azocin-3-yl]-piperidin-1-yl-methanone]", "remaining activity at 1 µM": -6}
{"smiles": "CC1(C)[C@H]2Cc3c(O)cccc3[C@]1(C)CCN2C(=O)N1C2CCC1CC(O)C2", "note": "(stereo partly shown) [Example 14]", "remaining activity at 1 µM": -46}
{"smiles": "CC1CCN(C(=O)N2CC[C@@]3(C)c4cccc(O)c4C[C@@H]2C3(C)C)CC1", "note": "[Example 9]", "remaining activity at 1 µM": -14}
{"smiles": "CC1(C)[C@H]2Cc3ccccc3[C@]1(C)CCN2C(=O)N1[C@@H]2CC[C@H]1C[C@](O)(C(F)(F)F)C2", "note": "[Example 73]", "remaining activity at 1 µM": -6}
{"smiles": "CC(C)(O)[C@@H]1CCCN(C(=O)N2CC[C@@]3(C)c4ccccc4C[C@@H]2C3(C)C)C1", "note": "[Example 66, [(R)-3-(1-Hydroxy-1-methyl-ethyl)-piperidin-1-yl]-[(2R,6S)-6,11,11-trimethyl-1,2,5,6-tetrahydro-4H-2,6-methano-benzo[d]azocin-3-yl]-methanone]", "remaining activity at 1 µM": -16}
{"smiles": "CCOC(=O)[C@H]1CCCN(C(=O)N2CC[C@@]3(C)c4ccccc4C[C@@H]2C3(C)C)C1", "note": "[Example 62]", "remaining activity at 1 µM": 13}
{"smiles": "CC1(C)[C@H]2Cc3c(O)cccc3[C@]1(C)CCN2C(=O)N1CCCC1", "note": "[Example 2]", "remaining activity at 1 µM": 18}
{"smiles": "CC1(C)[C@H]2Cc3ccccc3[C@]1(C)CCN2C(=O)N1[C@@H]2CC[C@H]1C[C@H](O)C2", "note": "[Example 79, (exo-3-Hydroxy-8-aza-bicyclo[3.2.1]oct-8-yl)-[(2R,6S)-6,11,11-trimethyl-1,2,5,6-tetrahydro-4H-2,6-methano-benzo[d]azocin-3-yl]-methanone]", "remaining activity at 1 µM": 13}
{"smiles": "CC1(C)[C@H]2Cc3c(O)cccc3[C@]1(C)CCN2C(=O)N1CCc2sccc2C1", "note": "[Example 8]", "remaining activity at 1 µM": -27}
